Tested on: primary human tumor cells
Assay: Drug sensitivity assay of primary tumor cell cultures on cell-adhesive matrix, growth quantitated by optical density of crystal violet stained wells, IC90 from survival curves
Assay type: cell-based
Conditions: median of IC90 values over a large group of individuals' tumor cells (Figure 5); 5 days drug exposure, then 7 days further culture; 2,000 cells per well
Protocol: Biopsies of tumors were obtained from cancer patients during routine diagnostic or therapeutic procedures. The biopsies were transported to the laboratory.
The solid tumor biopsies were minced with scapels to 1 mm pieces. Fluid specimens were anticoagulated with 10 Units/ml of Heparin and the cells recovered by contrifugation. The tissue from either the solid or fluid specimens were disaggregated by overnight incubation with constant stirring with the enzyme cocktail consisting of collagenase (0.075%) and DNase (0.005%) in culture medium supplemented with 10% fetal bovine serum. […]
The tumor cell count is performed using a hemocytometer and a microscope fitted with a phase gradient inaging system so that living cells can be visualized. The number of viable tumor cells are counted at 400X magnification according to the following criteria: 1. unstained by the trypan blue dye; 2. large size (>15 microns); 3. large nucleous to cytoplasmic ratio; 4. prominant nucleoli; and 5. nil to moderate granularity. The number of cells in 1/9th the marked area of the hemocytometer meeting the above criteria are counted.
The cell concentration is calculated and an aliquot containing the number of cells required for the assay (200,000 cells for a 9 drug assay using alphaMEM culture medium) is withdrawn. […]

N.N.[Cl][Pt][Cl] [cisplatin]
IC90 (concentration of drug that killed or inhibited 90% of the growing population of cells), median of the distribution of responses: 0.3 µg/mL

— patent EP0259183A2, “Process for controlling the accuracy and precision of sensitivity assays” (LIFETRAC, priority 1986, dated 1988)
